The values below come from patent US6413946B1, “Composition for treatment of diabetes and treatment of diabetes” (Meiji Seika Kaisha, Ltd., priority 1997, dated 2002).

One data set relates to rats. The data set can be described thus: Toxicity in rats at oral administration. Type of data set: in vivo.
The subject of data set [1] is STZ diabetic rats. Put plainly: Biochemical tests of blood of STZ diabetic rats (Example 2). Type of data set: in vivo, Wistar rats. The following applies: 320 mg/kg oral twice a day for 5 consecutive days. As for the experimental part: To male Wistar 7-week-old rats (7 rats per group), which were intravenously administered with a single dose of 60 mg/kg of STZ and which were confirmed to have been made diabetic after the lapse of 1 week from the STZ administration, fosfomycin disodium salt or fosfomycin calcium salt (FOM-Ca) was orally administered at a dose of 320 mg/kg, twice a day for 5 consecutive days. Then, sample of the blood of each test rat was taken and subjected to the biochemical tests.

The next data set deals with Na,K-ATPase. The note with it: cited from earlier work.
The test system of data set [2] is STZ diabetic rats. Put plainly: Biochemical tests of serum (blood) sample of STZ diabetic rats (Example 1). The note with it: oral twice a day for 5 consecutive days, fosfomycin disodium salt 160 mg/kg, vanadyl sulfate 50 mg/kg, alone or combined. Type of data set: in vivo, Wistar rats. As for the experimental part: In this Example, as animals to be tested, the STZ diabetic rats were prepared from normal Wistar rats having an average body weight of 250 g (male, 6 weeks of age). For this purpose, the normal Wistar rats were made diabetic by a single administration of a dose of 60 mg/kg of STZ intravenously. […]
(§1) The STZ diabetic rats as prepared and used in this Example are such those rats (7 weeks of age, 6 rats per group) which had received an intravenous administration of a single dose of 60 mg/kg of STZ and which were confirmed to have been made diabetic with their showing such symptom that their serum glucose level was not less than 400 (mg/dl), when measured by sampling their blood at 1 week lapse from the STZ administration.
One week after the intravenous administration of single dose 60 mg/kg of STZ, to the male 7-week-old Wistar rats (6 rats per group), which have been confirmed to have the symptoms of diabetes, were orally administered either one or both of vanadyl sulfate VOSO4 at a single dose of 50 mg/kg and fosfomycin disodium salt (abbreviated as FOM-Na) at a single dose of 160 mg/kg, twice a day for 5 consecutive days, by administration of the test compound(s) in the form of the aqueous solutions. The body weight, amounts (volumes) of feed taken, water taken and urine volume output of the rats under test were measured with lapse of time. […]

For data set [3], the system named is STZ diabetic rats. Put plainly: General observation of body conditions of STZ diabetic rats (Example 1). The note with it: oral twice a day for 5 consecutive days, VOSO4 50 mg/kg, FOM-Na 160 mg/kg. Format: in vivo, Wistar rats. As for the experimental part:
(§2) In this Example, as animals to be tested, the STZ diabetic rats were prepared from normal Wistar rats having an average body weight of 250 g (male, 6 weeks of age). For this purpose, the normal Wistar rats were made diabetic by a single administration of a dose of 60 mg/kg of STZ intravenously. The normal Wistar rats (male) which are to be subjected to the STZ administration, when they were given 20 g/day of feed and 36 g/day of water, had have such body conditions that average values each of their urine volume output, serum glucose level, serum urea nitrogen level, serum creatinine level, serum total protein level and serum albumin level of the rats are amounting to 18 ml, 152 mg/dl, 18.0 mg/dl, 0.5 mg/dl, 5.63 g/dl and 4.2 g/dl, respectively.
as §1
(§3) One week after the intravenous administration of single dose 60 mg/kg of STZ, to the male 7-week-old Wistar rats (6 rats per group), which have been confirmed to have the symptoms of diabetes, were orally administered either one or both of vanadyl sulfate VOSO4 at a single dose of 50 mg/kg and fosfomycin disodium salt (abbreviated as FOM-Na) at a single dose of 160 mg/kg, twice a day for 5 consecutive days, by administration of the test compound(s) in the form of the aqueous solutions. The body weight, amounts (volumes) of feed taken, water taken and urine volume output of the rats under test were measured with lapse of time. Further, sampling of blood from the rats was effected at a time of 24 hours after the final administration of the compound(s) tested. Samplings of the urine from the rats were effected over 12 hours after the final administration of the compound(s) tested, and the blood sample and the urine samples as collected were subjected to the following biochemical tests.
(§4) In the biological tests of the blood sample above-mentioned, there were measured the serum glucose level, serum urea nitrogen level, serum creatinine level, serum total protein level and serum albumin level. In the biochemical tests of the urine sample, there were measured the collected amounts of the glucose, total protein and creatinine present in the urine. […] These rats for the comparative purpose were tested similarly to the above tests.

Data set [4] relates to STZ diabetic rats. The data set can be described thus: Biochemical test of urine sample of STZ diabetic rats (Example 1). Type of data set: in vivo, Wistar rats. The note with it: oral twice a day for 5 consecutive days, VOSO4 50 mg/kg, FOM-Na 160 mg/kg. As for the experimental part: as §2, §1, §3, §4
Another data set deals with STZ diabatic rats. The note with it: aqueous saline solution as drinking water; 6th week after the administration; cited from earlier work.

Entries after “also recorded” stand apart in the source; their conditions may differ.

For the compound `C[C@@H]1O[C@@H]1P(=O)([O-])[O-].[Ca+2]` [FOM-Ca, fosfomycin calcium salt], the LD50 with rats (oral administration) was at least 3500 mg/kg. Moreover, the “Effect on serum glucose level / symptoms of diabetes (in words)” value (“Effect on serum glucose level / symptoms” for short) with STZ diabetic rats [1] (listed as calcium salt, calcium salt) is on record as “evidently ameliorate an unusually high serum glucose level”. In the data set with STZ diabetic rats [1] (listed as fosfomycin calcium salt, calcium salt), the “Effect on serum glucose level / symptoms” value is listed as “clearly ameliorate”. Besides, in the data set on STZ diabetic rats [1] (Day 0), the “Blood Glucose” value came to 431 ± 5 mg/dL and the “Blood Triglyceride” value is 178 ± 18 mg/d1. Further, in the data set on STZ diabetic rats [1] (Day 5), the “Blood Albumin” value stood at 4.1 ± 0.1 g/dL, the “Blood Creatinine” value was determined as 0.51 ± 0.01 mg/dL, the “Blood Glucose” value came to 336 ± 23 mg/dL and the “Blood Total protein” value stood at 5.37 ± 0.07 g/dL. In addition, the “Blood Triglyceride” value in the data set on STZ diabetic rats [1] (Day 5) amounted to 59 ± 7 mg/d1.

With `[Na+].[Na+].[Na+].[O]=[V]([O-])([O-])[O-]` [sodium orthovanadate], the “Inhibition of Na,K-ATPase (in words)” value with Na,K-ATPase was “strongly inhibit”.

For `O=S(=O)([O-])[O-].[O]=[V+2]` [VOSO4, vanadyl sulfate], in the data set with rats (oral administration of 50 mg/kg), the “Toxicity (in words)” value was “no toxicity”. Also, the “Effect on serum glucose level (in words)” value with STZ diabetic rats [2] is on record as “action of lowering an unusually high serum glucose level”. Besides, in the data set on STZ diabetic rats [3] (Day 0), the Body weight is 226 ± 8 g, the Feed volume taken was found to be 35 ± 2 g, the Urine volume output stood at 111 ± 10 mL and the Water volume taken is 140 ± 12 g. Besides, in the data set on STZ diabetic rats [3] (Day 5), the Body weight is recorded as 239 ± 9 g, the Feed volume taken worked out at 29 ± 4 g, the Urine volume output stood at 82 ± 21 mL and the Water volume taken was 99 ± 24 g. For the same compound, in the data set with STZ diabetic rats [4] (Day 0), the “Urine Creatinine” value came to 12.5 ± 1.8 mg/12 hr, the “Urine Glucose” value is 9.1 ± 1.4 g/12 hr and the “Urine Total protein” value was found to be 7.2 ± 8.2 g/12 hr. In addition, in the data set with STZ diabetic rats [4] (Day 5), the “Urine Creatinine” value is given as 12.1 ± 2.5 mg/12 hr, the “Urine Glucose” value stood at 6.8 ± 3.2 g/12 hr and the “Urine Total protein” value amounted to 3.9 ± 0.8 g/12 hr.

As for `C[C@@H]1O[C@@H](O[C@H]2C[C@@H](O)[C@]3(CO)[C@H]4[C@H](O)C[C@]5(C)[C@@H](C6=CC(=O)OC6)CC[C@]5(O)[C@@H]4CC[C@]3(O)C2)[C@H](O)[C@H](O)[C@H]1O` [ouabain], in the data set with Na,K-ATPase, the “Inhibition of Na,K-ATPase (in words)” value is reported as “strong inhibitor”.

Consider sodium metavanadate, for which the “Serum glucose level (in words)” value in the data set with STZ diabatic rats was “returned to the normal level”.

Turning to `C[C@@H]1O[C@@H]1P(=O)([O-])[O-].[Na+].[Na+]` [FOM-Na, fosfomycin disodium salt], the “Effect on serum glucose level (in words)” value in the data set on STZ diabetic rats [2] (disodium salt) is recorded as “tendency to improve the serum glucose level; also recorded: action of lowering an unusually high serum glucose level”. The “Effect on serum glucose level / symptoms” value in the data set with STZ diabetic rats [1] (disodium salt) is reported as “evidently ameliorate an unusually high serum glucose level; also recorded: clearly ameliorate”. Further, in the data set with STZ diabetic rats [1] (Day 0), the “Blood Glucose” value is 432 ± 6 mg/dL and the “Blood Triglyceride” value is 211 ± 30 mg/d1. Moreover, in the data set with STZ diabetic rats [1] (Day 5), the “Blood Albumin” value was determined as 4.0 ± 0.1 g/dL, the “Blood Creatinine” value is 0.50 ± 0.00 mg/dL, the “Blood Glucose” value was determined as 345 ± 23 mg/dL and the “Blood Total protein” value came to 5.26 ± 0.06 g/dL. For the same compound, the “Blood Triglyceride” value in the data set with STZ diabetic rats [1] (Day 5) was found to be 65 ± 3 mg/d1. Moreover, in the data set with STZ diabetic rats [3] (Day 0), the Body weight turned out to be 235 ± 4 g, the Feed volume taken came out at 36 ± 1 g, the Urine volume output stood at 115 ± 5 mL and the Water volume taken is on record as 153 ± 5 g. In the data set on STZ diabetic rats [3] (Day 5), the Body weight was found to be 282 ± 3 g, the Feed volume taken is 37 ± 1 g, the Urine volume output is 106 ± 7 mL and the Water volume taken was found to be 142 ± 16 g. Also, in the data set with STZ diabetic rats [4] (Day 0), the “Urine Creatinine” value was 12.5 ± 0.7 mg/12 hr, the “Urine Glucose” value is 9.2 ± 0.9 g/12 hr and the “Urine Total protein” value was 4.2 ± 1.1 g/12 hr. Besides, in the data set on STZ diabetic rats [4] (Day 5), the “Urine Creatinine” value was 12.5 ± 0.8 mg/12 hr, the “Urine Glucose” value is 8.9 ± 1.3 g/12 hr and the “Urine Total protein” value worked out at 5.6 ± 2.2 g/12 hr.
